This experiment deals with T1, recombinant human CL receptor/RAMP1 (Homo sapiens, UniProt O60894+Q16602).
T1 construct: expressed in transfected cells
Description: Recombinant receptor functional assay (cAMP, HTRF). The class given is cell-based. The note with it: HEK 293 cells expressing human CL receptor/RAMP1; antagonism of 1.2 nM human α-CGRP-stimulated cAMP. The protocol: RECOMBINANT RECEPTOR: Human CL receptor (Genbank accession number L76380) was subcloned into the expression vector pIREShyg2 (BD Biosciences Clontech) as a 5′NheI and 3′ PmeI fragment. Human RAMP1 (Genbank accession number AJ001014) was subcloned into the expression vector pIRESpuro2 (BD Biosciences Clontech) as a 5′NheI and 3′NotI fragment. HEK 293 cells (human embryonic kidney cells; ATCC #CRL-1573) were cultured in DMEM with 4.5 g/L glucose, 1 mM sodium pyruvate and 2 mM glutamine supplemented with 10% fetal bovine serum (FBS), 100 units/mL penicillin and 100 μg/mL streptomycin, and maintained at 37° C. and 95% humidity. Cells were subcultured by treatment with 0.25% trypsin with 0.1% EDTA in HBSS. Stable cell line generation was accomplished by co-transfecting 10 μg of DNA with 30 μg Lipofectamine 2000 (Invitrogen) in 75 cm^2 flasks. CL receptor and RAMP1 expression constructs were co-transfected in equal amounts. […]
RECOMBINANT RECEPTOR FUNCTIONAL ASSAY: Cells were resuspended in DMEM/F12 (Hyclone) supplemented with 1 g/L BSA and 300 μM isobutyl-methylxanthine. […] Raw data were transformed into concentration of cAMP using a standard curve then dose response curves were plotted and inflection point (IP) values were determined.

Here are results for one compound from US20150087641A1, “HETEROCYCLIC CGRP RECEPTOR ANTAGONISTS” (Merck Sharp & Dohme Corp., priority 2012, published 2015).

T1 sequence (Q16602 23-461): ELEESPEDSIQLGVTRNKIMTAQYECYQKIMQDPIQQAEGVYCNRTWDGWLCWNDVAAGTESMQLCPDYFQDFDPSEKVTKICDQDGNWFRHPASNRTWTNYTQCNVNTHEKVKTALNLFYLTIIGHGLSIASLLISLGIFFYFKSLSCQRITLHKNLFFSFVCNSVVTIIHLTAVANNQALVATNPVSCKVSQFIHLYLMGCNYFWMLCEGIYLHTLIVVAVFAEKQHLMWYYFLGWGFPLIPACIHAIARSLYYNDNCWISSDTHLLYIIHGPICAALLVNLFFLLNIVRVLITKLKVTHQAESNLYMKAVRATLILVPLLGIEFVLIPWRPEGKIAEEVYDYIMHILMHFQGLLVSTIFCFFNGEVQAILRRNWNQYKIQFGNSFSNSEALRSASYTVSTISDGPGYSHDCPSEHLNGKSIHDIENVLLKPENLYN
T1 sequence (O60894 27-148): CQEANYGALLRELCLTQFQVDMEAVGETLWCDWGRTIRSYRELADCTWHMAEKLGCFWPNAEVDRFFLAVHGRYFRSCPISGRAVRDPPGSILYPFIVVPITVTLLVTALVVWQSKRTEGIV

For the compound `C[C@@H]1[C@H](c2ccccc2)C[C@H](NC(=O)c2ccc3c(c2)CC2(C3)OC(=O)Nc3ncccc32)C(=O)N1CC(F)(F)F` (stereo partly drawn) [Example 1, N-((3S,5S,6R)-6-Methyl-2-oxo-5-phenyl-1-(2,2,2-trifluoroethyl)piperidin-3-yl)-2′-oxo-1,1′,2′,3-tetrahydrospiro[indene-2,4′-pyrido[2,3-d][1,3]oxazine]-5-carboxamide], the IC50 (usually the concentration that gives 50% inhibition) came to 89 nM.
